Laboratory results taken from publication PMC4774911, “Biochemical Screening of Five Protein Kinases from Plasmodium falciparum against 14,000 Cell-Active Compounds” (PLoS ONE, 2016).
Where “and” joins values, the source holds several entries; their conditions need not be identical. Identical values can stand only once.

Experiments:
Test in all cases: biochemical
[1] = molecular target: CAMKK2 (Homo sapiens, UniProt Q96RR4)
[2] = molecular target: CDK2 (Homo sapiens, UniProt P24941)
[3] = molecular target: CHEK2 (Homo sapiens, UniProt O96017)
[4] = molecular target: GSK3A (Homo sapiens, UniProt P49840)
[5] = molecular target: LYN (Homo sapiens, UniProt P07948)
[6] = molecular target: T1, MAP3K6 (Homo sapiens, UniProt O95382)
T1 sequence (O95382 1-1288): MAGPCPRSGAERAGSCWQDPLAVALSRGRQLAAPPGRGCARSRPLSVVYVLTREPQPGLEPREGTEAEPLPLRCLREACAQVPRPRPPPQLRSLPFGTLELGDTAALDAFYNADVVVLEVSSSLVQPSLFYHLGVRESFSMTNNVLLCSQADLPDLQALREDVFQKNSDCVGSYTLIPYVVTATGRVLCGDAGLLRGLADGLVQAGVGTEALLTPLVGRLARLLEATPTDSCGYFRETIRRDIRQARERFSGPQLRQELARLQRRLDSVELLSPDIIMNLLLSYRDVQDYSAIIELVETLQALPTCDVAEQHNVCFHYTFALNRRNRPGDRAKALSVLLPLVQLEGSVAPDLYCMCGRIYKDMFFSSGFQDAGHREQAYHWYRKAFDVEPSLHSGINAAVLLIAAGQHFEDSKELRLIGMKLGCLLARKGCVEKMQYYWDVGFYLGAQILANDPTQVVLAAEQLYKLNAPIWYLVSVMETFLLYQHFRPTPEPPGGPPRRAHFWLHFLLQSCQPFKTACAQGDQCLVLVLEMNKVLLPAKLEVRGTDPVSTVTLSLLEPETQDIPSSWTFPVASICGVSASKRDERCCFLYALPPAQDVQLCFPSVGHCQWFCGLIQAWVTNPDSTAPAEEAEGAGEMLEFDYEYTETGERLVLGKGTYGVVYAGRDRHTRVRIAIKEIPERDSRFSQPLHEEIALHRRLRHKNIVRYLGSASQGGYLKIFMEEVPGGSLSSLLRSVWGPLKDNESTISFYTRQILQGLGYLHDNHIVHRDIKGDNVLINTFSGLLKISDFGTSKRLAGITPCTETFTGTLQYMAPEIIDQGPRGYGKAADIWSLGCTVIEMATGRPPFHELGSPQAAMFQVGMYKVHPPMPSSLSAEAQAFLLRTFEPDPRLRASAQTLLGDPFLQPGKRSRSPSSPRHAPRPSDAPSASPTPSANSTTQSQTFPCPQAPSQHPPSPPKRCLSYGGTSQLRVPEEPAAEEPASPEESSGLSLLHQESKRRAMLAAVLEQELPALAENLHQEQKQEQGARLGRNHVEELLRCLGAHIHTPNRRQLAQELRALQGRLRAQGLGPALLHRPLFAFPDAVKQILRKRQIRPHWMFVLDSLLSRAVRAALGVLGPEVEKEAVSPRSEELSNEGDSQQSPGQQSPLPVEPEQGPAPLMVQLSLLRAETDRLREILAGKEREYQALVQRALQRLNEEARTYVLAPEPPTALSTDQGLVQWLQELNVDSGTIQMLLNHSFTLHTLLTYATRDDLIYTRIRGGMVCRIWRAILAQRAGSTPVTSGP

[7] = molecular target: MAPK3 (Homo sapiens, UniProt P27361)
[8] = molecular target: T2, PKMYT1 (Homo sapiens, UniProt Q99640)
T2 sequence (Q99640 1-499): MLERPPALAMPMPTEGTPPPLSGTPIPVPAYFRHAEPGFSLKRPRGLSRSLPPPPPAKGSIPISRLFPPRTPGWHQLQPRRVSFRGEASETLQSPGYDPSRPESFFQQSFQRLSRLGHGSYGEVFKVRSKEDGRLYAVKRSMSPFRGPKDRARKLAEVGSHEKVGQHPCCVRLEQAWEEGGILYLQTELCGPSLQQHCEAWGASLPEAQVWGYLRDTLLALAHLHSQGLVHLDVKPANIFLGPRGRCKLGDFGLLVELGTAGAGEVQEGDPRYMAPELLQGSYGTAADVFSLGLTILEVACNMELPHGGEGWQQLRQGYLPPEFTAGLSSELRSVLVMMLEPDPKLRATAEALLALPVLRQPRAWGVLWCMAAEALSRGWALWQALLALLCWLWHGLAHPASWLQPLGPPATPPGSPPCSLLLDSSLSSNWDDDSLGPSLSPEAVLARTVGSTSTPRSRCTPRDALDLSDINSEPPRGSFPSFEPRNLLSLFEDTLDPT

[9] = molecular target: PRKCQ (Homo sapiens, UniProt Q04759)
[10] = molecular target: STK38 (Homo sapiens, UniProt Q15208)
[11] = molecular target: YES1 (Homo sapiens, UniProt P07947)
YES1, sequence (P07947 whole entry): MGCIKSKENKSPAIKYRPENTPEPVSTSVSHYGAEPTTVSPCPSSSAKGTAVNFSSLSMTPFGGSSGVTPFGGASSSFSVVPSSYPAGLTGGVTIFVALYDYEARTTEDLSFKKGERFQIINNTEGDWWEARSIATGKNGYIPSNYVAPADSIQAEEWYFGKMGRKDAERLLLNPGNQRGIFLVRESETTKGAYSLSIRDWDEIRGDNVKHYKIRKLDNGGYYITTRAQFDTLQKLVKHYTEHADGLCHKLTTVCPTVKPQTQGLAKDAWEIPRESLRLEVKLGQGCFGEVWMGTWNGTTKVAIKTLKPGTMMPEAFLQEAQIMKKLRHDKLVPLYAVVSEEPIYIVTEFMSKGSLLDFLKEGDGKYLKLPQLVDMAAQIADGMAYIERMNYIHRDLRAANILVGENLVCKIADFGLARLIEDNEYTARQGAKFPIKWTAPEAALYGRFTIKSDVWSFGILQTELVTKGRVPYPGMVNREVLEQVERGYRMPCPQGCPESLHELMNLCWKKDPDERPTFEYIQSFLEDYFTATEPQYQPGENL

LYN, sequence (P07948 whole entry): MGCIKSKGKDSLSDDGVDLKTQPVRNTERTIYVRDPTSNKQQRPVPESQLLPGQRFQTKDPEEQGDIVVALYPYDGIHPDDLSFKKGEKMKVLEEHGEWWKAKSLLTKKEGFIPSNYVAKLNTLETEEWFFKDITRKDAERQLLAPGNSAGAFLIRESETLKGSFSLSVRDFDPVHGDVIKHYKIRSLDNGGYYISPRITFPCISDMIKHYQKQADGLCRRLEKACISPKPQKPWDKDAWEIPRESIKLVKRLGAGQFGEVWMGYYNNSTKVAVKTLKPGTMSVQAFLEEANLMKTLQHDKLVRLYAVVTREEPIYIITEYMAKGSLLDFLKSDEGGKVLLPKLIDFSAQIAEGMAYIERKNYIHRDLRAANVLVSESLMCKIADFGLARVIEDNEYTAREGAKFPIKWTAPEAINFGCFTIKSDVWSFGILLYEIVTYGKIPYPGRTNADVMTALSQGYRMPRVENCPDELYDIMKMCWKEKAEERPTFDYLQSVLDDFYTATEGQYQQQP
STK38, sequence (Q15208 whole entry): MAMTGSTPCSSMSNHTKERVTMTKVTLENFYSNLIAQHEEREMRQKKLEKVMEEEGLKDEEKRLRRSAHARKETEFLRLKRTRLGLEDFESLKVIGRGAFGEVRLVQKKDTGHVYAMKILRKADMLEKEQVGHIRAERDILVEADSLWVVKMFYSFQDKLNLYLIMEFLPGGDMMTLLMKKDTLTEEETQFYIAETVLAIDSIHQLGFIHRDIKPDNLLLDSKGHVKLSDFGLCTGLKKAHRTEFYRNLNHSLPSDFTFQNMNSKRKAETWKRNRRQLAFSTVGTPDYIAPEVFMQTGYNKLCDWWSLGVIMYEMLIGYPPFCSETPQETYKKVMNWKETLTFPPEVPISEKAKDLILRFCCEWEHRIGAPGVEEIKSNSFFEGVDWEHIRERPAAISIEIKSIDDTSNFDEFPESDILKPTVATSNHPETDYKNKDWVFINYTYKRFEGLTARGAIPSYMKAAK
MAPK3, sequence (P27361 whole entry): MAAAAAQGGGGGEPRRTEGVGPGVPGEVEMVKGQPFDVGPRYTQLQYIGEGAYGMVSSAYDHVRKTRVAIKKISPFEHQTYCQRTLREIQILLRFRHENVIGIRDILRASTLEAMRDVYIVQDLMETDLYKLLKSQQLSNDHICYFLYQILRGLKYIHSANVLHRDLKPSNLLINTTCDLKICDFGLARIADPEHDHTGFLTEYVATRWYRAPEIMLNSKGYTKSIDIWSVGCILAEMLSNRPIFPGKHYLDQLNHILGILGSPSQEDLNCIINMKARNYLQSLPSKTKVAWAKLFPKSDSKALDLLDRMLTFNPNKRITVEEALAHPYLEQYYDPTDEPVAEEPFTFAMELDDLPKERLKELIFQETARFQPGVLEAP
GSK3A, sequence (P49840 whole entry): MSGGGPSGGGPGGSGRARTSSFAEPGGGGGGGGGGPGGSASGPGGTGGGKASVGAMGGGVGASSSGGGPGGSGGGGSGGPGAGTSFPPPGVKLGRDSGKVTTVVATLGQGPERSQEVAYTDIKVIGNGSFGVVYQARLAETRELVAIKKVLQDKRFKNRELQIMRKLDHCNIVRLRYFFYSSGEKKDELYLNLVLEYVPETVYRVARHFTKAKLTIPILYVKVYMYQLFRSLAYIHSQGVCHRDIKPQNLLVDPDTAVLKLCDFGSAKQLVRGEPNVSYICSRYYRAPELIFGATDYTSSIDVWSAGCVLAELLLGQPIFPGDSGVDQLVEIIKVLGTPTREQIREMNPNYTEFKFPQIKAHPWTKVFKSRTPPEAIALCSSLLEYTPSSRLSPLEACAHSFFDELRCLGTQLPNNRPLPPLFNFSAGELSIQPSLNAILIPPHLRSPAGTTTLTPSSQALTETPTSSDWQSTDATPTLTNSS
CHEK2, sequence (O96017 whole entry): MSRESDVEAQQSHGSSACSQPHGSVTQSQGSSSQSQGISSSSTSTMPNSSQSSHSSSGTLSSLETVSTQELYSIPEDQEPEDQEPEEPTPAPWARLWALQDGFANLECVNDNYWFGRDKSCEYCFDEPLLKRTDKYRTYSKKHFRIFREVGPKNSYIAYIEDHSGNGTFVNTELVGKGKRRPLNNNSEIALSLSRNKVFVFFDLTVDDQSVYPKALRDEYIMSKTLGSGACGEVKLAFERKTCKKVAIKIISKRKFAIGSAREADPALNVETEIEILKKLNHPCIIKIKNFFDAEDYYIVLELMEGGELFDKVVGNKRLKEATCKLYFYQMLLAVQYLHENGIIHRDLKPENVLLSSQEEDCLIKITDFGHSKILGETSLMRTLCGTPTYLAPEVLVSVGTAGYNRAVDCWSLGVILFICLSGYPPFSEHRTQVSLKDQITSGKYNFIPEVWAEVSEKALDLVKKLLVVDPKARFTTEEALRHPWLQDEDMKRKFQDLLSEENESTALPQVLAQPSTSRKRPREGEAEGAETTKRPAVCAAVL
CAMKK2, sequence (Q96RR4 whole entry): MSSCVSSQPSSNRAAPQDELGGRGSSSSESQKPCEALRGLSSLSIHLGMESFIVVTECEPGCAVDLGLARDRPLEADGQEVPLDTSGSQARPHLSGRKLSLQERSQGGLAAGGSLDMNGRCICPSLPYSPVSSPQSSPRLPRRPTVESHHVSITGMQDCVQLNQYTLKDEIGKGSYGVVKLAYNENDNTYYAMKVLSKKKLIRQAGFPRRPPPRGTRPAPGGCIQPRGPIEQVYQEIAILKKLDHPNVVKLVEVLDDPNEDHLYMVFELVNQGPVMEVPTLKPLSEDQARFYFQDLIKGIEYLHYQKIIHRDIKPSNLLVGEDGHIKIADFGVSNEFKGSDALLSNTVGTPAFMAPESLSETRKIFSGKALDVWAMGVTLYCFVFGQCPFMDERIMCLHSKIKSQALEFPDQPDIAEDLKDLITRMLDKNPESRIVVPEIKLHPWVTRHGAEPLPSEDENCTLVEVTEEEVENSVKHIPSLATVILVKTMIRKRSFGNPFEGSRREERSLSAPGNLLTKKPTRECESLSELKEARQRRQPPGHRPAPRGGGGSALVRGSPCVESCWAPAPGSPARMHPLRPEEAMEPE
PRKCQ, sequence (Q04759 whole entry): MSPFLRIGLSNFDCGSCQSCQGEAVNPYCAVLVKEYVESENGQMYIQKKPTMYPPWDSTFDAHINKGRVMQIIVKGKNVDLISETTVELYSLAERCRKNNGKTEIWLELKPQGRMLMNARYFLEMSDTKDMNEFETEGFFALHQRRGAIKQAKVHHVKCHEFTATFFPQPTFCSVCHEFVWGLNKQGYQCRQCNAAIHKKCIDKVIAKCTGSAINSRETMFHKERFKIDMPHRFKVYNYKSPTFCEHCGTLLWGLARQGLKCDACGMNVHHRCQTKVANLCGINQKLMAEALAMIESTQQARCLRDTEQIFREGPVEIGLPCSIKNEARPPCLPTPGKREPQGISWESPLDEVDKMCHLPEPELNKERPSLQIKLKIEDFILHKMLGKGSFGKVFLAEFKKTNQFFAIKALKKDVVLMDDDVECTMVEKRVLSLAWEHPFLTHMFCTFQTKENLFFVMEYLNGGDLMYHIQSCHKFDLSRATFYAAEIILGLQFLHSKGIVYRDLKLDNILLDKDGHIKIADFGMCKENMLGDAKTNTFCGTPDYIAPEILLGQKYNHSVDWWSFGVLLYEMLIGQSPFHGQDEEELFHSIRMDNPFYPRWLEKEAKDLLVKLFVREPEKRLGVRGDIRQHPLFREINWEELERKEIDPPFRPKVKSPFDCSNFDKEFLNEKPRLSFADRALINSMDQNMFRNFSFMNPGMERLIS

CN(C)CC(O)COc1ccc(Nc2ncc([N+](=O)[O-])c(Nc3ccccc3O)n2)cc1.O=C(O)C(F)(F)F (stereo not drawn) [TCMDC-141399]
IC50 [1]: 5300 nM and 5600 nM
IC50 [2]: > 20000 nM
IC50 [3]: 11000 nM
IC50 [4]: 6700 nM and 7400 nM
IC50 [5]: > 20000 nM
IC50 [6]: > 20000 nM
IC50 [7]: > 20000 nM
IC50 [8]: > 20000 nM
IC50 [9]: > 20000 nM
IC50 [10]: > 20000 nM
IC50 [11]: > 20000 nM

Cl.NCC1(c2nc(-c3ccc(Cl)c(O)c3)c(-c3ccncc3)[nH]2)CCCCC1 [TCMDC-141154]
IC50 [1]: > 20000 nM
IC50 [2]: > 20000 nM
IC50 [3]: > 20000 nM
IC50 [4]: > 20000 nM
IC50 [5]: 1300 nM
IC50 [6]: > 20000 nM
IC50 [7]: > 20000 nM
IC50 [8]: > 20000 nM
IC50 [9]: 1100 nM and 1400 nM
IC50 [10]: > 20000 nM
IC50 [11]: 4400 nM and 7700 nM

CN1CCN(c2ccc(Nc3ncc(C#N)c(Nc4ccccc4C(N)=O)n3)cc2)CC1.Cl [TCMDC-134116]
IC50 [1]: 360 nM and 380 nM
IC50 [2]: 360 nM and 350 nM
IC50 [3]: 170 nM
IC50 [4]: 1400 nM and 1100 nM
IC50 [5]: 280 nM and 350 nM
IC50 [6]: 1600 nM and 1400 nM
IC50 [7]: > 20000 nM
IC50 [8]: 1400 nM and 940 nM
IC50 [9]: 1200 nM and 910 nM
IC50 [10]: 350 nM and 290 nM
IC50 [11]: 120 nM and 150 nM
